The values below come from US4617269A, “Process for the preparation of fructosyl disaccharides” (priority 1983, dated 1986).

Experiment [1] can be described thus: Sweetness relative to sucrose.
Experiment [2] has as its system Dedonder's levan sucrase from B.subtilis BS5 (a clone from B.subtilis var. nigra). To be noted: cited from earlier work.

Where two headings read alike, the source gives them in different places.

`C[C@H]1O[C@H](O[C@]2(CCl)O[C@H](CCl)[C@@H](O)[C@@H]2O)[C@H](O)[C@@H](O)[C@H]1Cl` [4,1',6'-trichloro-4,6,1',6'-tetradeoxygalactosucrose]: the “sweetness, times as sweet as sucrose” value in experiment [1] (8% solution) came to 400 times as sweet as sucrose.
For the molecule `O[C@@H]1[C@@H](O)[C@@H](O[C@]2(CCl)O[C@H](CCl)[C@@H](O)[C@@H]2O)OC[C@@H]1Cl` [Example 8], in experiment [1] (in a 2% solution), the “sweetness, times as sweet as sucrose” value came out at 25 times as sweet as sucrose.
As for `OC[C@H]1O[C@H](O[C@]2(CO)O[C@H](CO)[C@@H](O)[C@@H]2O)[C@H](O)[C@@H](O)[C@H]1O` [Galactosucrose, β-D-fructofuranosyl (2→1)-D-galactopyranoside], the sweetness in experiment [1] (only a trace of sweetness) was 10-15 % of sucrose.
Usually Km stands for the substrate concentration at which the rate is half of its maximum. Take `OC[C@H]1O[C@@](CO)(O[C@H]2O[C@H](CO)[C@@H](O)[C@H](O)[C@H]2O)[C@@H](O)[C@@H]1O` [sucrose, β-D-fructofuranosyl α-D-glucopyranoside]: the Michaelis constant (Km) in experiment [2] (Dedonder (loc.cit.) BS5 strain enzyme, read-out: Km (sucrose), quoted) is ~20 mM; in experiment [2] (reported for Dedonder's levan sucrase, read-out: Km for sucrose) it was 20 mM.
